Patent publication US5939447A, “Substituted benzopyrans” (SmithKline Beecham Corporation, priority 1998, dated 1999)

Tests used:
[1] = incubation of pranlukast with liver microsomes from rats or mice; type: in vitro ADME; settings: rat or mouse liver microsomes; for metabolite formation from pranlukast: high concentrations of pranlukast (50 uM)
[2] = incubation of pranlukast with human liver S9 from donor H51; type: in vitro ADME
Method: Samples from the human S9 incubations were received as a 1:1 mixture of incubation media and acetonitrile. In order to reduce the relative organic content to about 25%, the samples were diluted with an equal volume of water prior to HPLC/MS and HPLC/MS/MS analysis. Samples from the microsomal incubations were also received as a 1:1 mixture of incubation media and acetonitrile. The relative organic content was however reduced to about 25% by evaporation following the centrifugation step.
Retention times observed in the ion chromatograms for m/z 498 and 482 (pranlukast) correlate well with those in the radiochromatogram. […] Therefore, in the CID spectra of the two monohydroxylated metabolites and the parent compound, the precursor and fragment ions are all shifted by +2 amu due to the predominance of the [^14 C] label. The observed fragmentation patterns are identical to the standards and confirmed the presence of pranlukast, as well as two monohydroxylated metabolites.

[3] = human radiolabel study of pranlukast (recovery in feces, metabolites in feces and plasma); type: in vivo; settings: for plasma concentrations of metabolite in humans: human plasma, limited data from the single radiolabelled study
[4] = assays predictive of utility in treating asthma
[5] = incubation of pranlukast with liver microsomes from dogs; type: in vitro ADME; settings: dog liver microsomes
[6] = incubation with human liver microsomes; type: in vitro ADME; settings: human liver microsomes and NADPH
Method: From an evaluation of a battery of human liver microsomes, it was evident that some human livers have enhanced activity towards benzylic hydroxylation. It appears that benzylic and aryl hydroxylation are performed by different P450 enzymes but which enzyme(s) is currently not known.
Preparation of Formula (I) Using Human Hepatic Microsomes:
The incubations were performed with a final volume of 100 mL in a shaking water bath at a temperature of approximately 37° C. Each incubation contained approximately 400 ug/mL of microsomal protein (H51), 0.5 mL 2 mM pranlukast in a 16% w/v encapsin solution containing 1.5% w/v sodium bicarbonate. The incubation volume was adjusted to 75 mL with 50 mM potassium phosphate buffer (pH 7.4). Following a 5 minute pre-incubation at approximately 37° C., the reaction was initiated by the addition of 25 mL of pre-warmed cofactor solution (approximately 1.7 mg NADP, 7.8 mg glucose 6-phosphate and 6 units of glucose 6-phosphate dehydrogenase per mL of 2% (w/v) sodium hydrogen carbonate). […] The putative benzyl hydroxy metabolite was subsequently isolated and analysed as described below. […]
The incubation was performed with a final volume of […] in a shaking water bath at a temperature of approximately 37° C. […] The putative dihydroxymetabolite formed was subsequently analysed and isolated as described below.

Row | SMILES | metabolite formation from pranlukast [1] | dependence of metabolite formation on NADPH [2] | metabolite formation from pranlukast [2] | sulfation in humans ([3]; human) | plasma concentrations of metabolite in humans [3] | plasma concentrations of metabolite in humans ([3]; listed as benzylhydroxy) | activity in assays predictive of utility in treating asthma and other diseases which can be treated by pranlukast [4] | metabolite formation from pranlukast [5] | metabolite generated in vitro from the 4-hydroxyphenyl pranlukast analog [6] | presence of metabolite in human fecal samples ([3]; human feces) | predominant metabolic pathway [1] | absorption ([3]; human) | route of metabolism in humans ([3]; human, benzylic hydroxylation) | dose excreted ([3]; human, feces, after pranlukast, read-out: administered radiolabel recovered in feces as the named species) [%] | administered radiolabel recovered in feces ([3]; human, total radiolabel after pranlukast) [%]
1 | O=C(Nc1cccc2c(=O)cc(-c3nnn[nH]3)oc12)c1ccc(OCCCC(O)c2ccccc2)cc1 (centres unmarked) [Formula (I), 4-oxo-8-[4-(4-hydroxy-4-phenylbutoxy)benzoylamino]-2-tetrazol-5-yl-4H-1-benzopyran] | detectable | dependent on the presence of NADPH | major metabolites | no evidence for sulfation | measurable plasma concentrations in humans | measurable in human plasma | active | only very small amounts |  |  |  |  |  |  | 
2 | O=C(Nc1cccc2c(=O)cc(-c3nnn[nH]3)oc12)c1ccc(OCCCC(O)c2ccc(O)cc2)cc1 (centres unmarked) [Formula (II), 4-oxo-8-[4-(4-hydroxy-4-(4-hydroxyphenyl)butoxy)benzoylarnino]-2-tetrazol-5-yl-4H-1-benzopyran] | detectable |  |  | appears to be sulfated in humans | measurable in human plasma |  | active | form the arylhydroxy species | generated in vitro | found in human fecal samples |  |  |  |  | 
3 | O=C(Nc1cccc2c(=O)cc(-c3nnn[nH]3)oc12)c1ccc(OCCCCc2ccccc2)cc1 [pranlukast, reference compound] |  |  |  |  |  |  |  |  |  |  | hydrolysis of the amide bond in the center of the molecule is the predominant metabolic pathway | poor absorption | major route of metabolism in humans | ~84 | 98.4
